Several values for one entry are separate records, joined by “and”; a condition that tells them apart may be missing. Equal values may be shown once. Toxic doses and inconclusive results are not listed.

The test system of the assay is L1210 leukemia ip in BDF1 mice, survival T/C. As to the kind of experiment: NCI In Vivo Anticancer Drug Screen. Data for tumor model L1210 Leukemia (intraperitoneal) in B6D2F1 (BDF1) mice. The note with it: endpoint: mean survival time, higher = longer survival. Summed up:
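Transplanted-tumor mice were given test agent; controls received vehicle only. Survival readings from the two groups were divided (treated over control).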

Setting [1] is: dose: 50.0 mg/kg/injection, schedule: Q01DX009 (ip), vehicle: saline.
The mark [2] stands for this setting: dose: 100.0 mg/kg/injection, schedule: Q01DX009 (ip), vehicle: saline.
[3] abbreviates: dose: 100.0 mg/kg/injection, schedule: Q01DX009 (ip), vehicle: saline with Tween-80.
Setting [4] is: dose: 200.0 mg/kg/injection, schedule: Q01DX009 (ip), vehicle: saline with Tween-80.
Setting [5] is: dose: 400.0 mg/kg/injection, schedule: Q01DX009 (ip), vehicle: saline with Tween-80.
The mark [6] stands for this setting: dose: 100.0 mg/kg/injection, schedule: Q01DX009 (ip), vehicle: Klucel (hydroxypropylcellulose) (HPC).
Where [7] appears, read: dose: 200.0 mg/kg/injection, schedule: Q01DX009 (ip), vehicle: Klucel (hydroxypropylcellulose) (HPC).
The mark [8] stands for this setting: dose: 400.0 mg/kg/injection, schedule: Q01DX009 (ip), vehicle: Klucel (hydroxypropylcellulose) (HPC).
Setting [9] is: dose: 100.0 mg/kg/injection, schedule: Q01DX001 (ip), vehicle: saline.
[10] abbreviates: dose: 200.0 mg/kg/injection, schedule: Q01DX001 (ip), vehicle: saline.
Where [11] appears, read: dose: 400.0 mg/kg/injection, schedule: Q01DX001 (ip), vehicle: saline.
The mark [12] stands for this setting: dose: 100.0 mg/kg/injection, schedule: Q04DX003 (ip), vehicle: Klucel (hydroxypropylcellulose) (HPC).
[13] abbreviates: dose: 200.0 mg/kg/injection, schedule: Q04DX003 (ip), vehicle: Klucel (hydroxypropylcellulose) (HPC).
The mark [14] stands for this setting: dose: 400.0 mg/kg/injection, schedule: Q04DX003 (ip), vehicle: Klucel (hydroxypropylcellulose) (HPC).

On to `COc1n[n+]([O-])c(Cl)c(/C=C\c2ccccc2)c1[N+](=O)[O-]`, for which the T/C (dose: 75.0 mg/kg/injection, schedule: Q04DX002 (ip), vehicle: Klucel (hydroxypropylcellulose) (HPC)) was 93 % of control; the T/C (dose: 150.0 mg/kg/injection, schedule: Q04DX002 (ip), vehicle: Klucel (hydroxypropylcellulose) (HPC)) was 101 % of control; the T/C (dose: 300.0 mg/kg/injection, schedule: Q04DX002 (ip), vehicle: Klucel (hydroxypropylcellulose) (HPC)) was 101 % of control.

As for `C[N+](C)(C)c1ccc(/C(C#N)=N/O)cc1`, the T/C is 101 % of control (dose: 12.5 mg/kg/injection, schedule: Q01DX009 (ip), vehicle: Klucel (hydroxypropylcellulose) (HPC)) and 100 % of control (dose: 25.0 mg/kg/injection, schedule: Q01DX009 (ip), vehicle: Klucel (hydroxypropylcellulose) (HPC)).

As for `c1ccc(-c2cscc2-c2ccccc2)cc1`, the T/C reads like this: (dose: 25.0 mg/kg/injection, schedule: Q01DX009 (ip), vehicle: saline) 105 % of control; under setting [1], 96 % of control; under setting [2], 100 % of control; (dose: 200.0 mg/kg/injection, schedule: Q01DX009 (ip), vehicle: saline) 97 % of control; (dose: 400.0 mg/kg/injection, schedule: Q01DX009 (ip), vehicle: saline) 98 % of control.

As for `CC(=O)Nc1ccc(S(=O)(=O)Nc2ccc([N+](=O)[O-])cc2)cc1`, the T/C is 96 % of control (dose: 25.0 mg/kg/injection, schedule: Q01DX009 (ip), vehicle: saline with Tween-80); 100 % of control (dose: 50.0 mg/kg/injection, schedule: Q01DX009 (ip), vehicle: saline with Tween-80); 98 % of control and 87 % of control under setting [3]; 109 % of control (dose: 100.0 mg/kg/injection, schedule: Q04DX003 (ip), vehicle: saline with Tween-80); 95 % of control and 94 % of control under setting [4]; 109 % of control (dose: 200.0 mg/kg/injection, schedule: Q04DX003 (ip), vehicle: saline with Tween-80). In addition, the T/C is, setting by setting: under setting [5], 97 % of control and 94 % of control; (dose: 400.0 mg/kg/injection, schedule: Q04DX003 (ip), vehicle: saline with Tween-80) 109 % of control.

As for `CN(C)C(=O)Sc1c(Cl)cc(Cl)cc1S(=O)(=O)F`, the T/C is 97 % of control under setting [6], 100 % of control under setting [7] and 97 % of control under setting [8].

With `N#CCCOCC(COCCC#N)OCCC#N`, the T/C was 106 % of control (dose: 50.0 mg/kg/injection, schedule: Q01DX001 (ip), vehicle: saline); 124 % of control under setting [1]; 108 % of control under setting [9]; 108 % of control under setting [2]; 101 % of control under setting [10]; 92 % of control under setting [11].

`CC1C=CC=CC=C1`: the T/C runs as follows: (dose: 100.0 mg/kg/injection, schedule: Q01DX001 (ip), vehicle: Klucel (hydroxypropylcellulose) (HPC)) 98 % of control; under setting [12], 102 % of control; (dose: 200.0 mg/kg/injection, schedule: Q01DX001 (ip), vehicle: Klucel (hydroxypropylcellulose) (HPC)) 90 % of control; under setting [13], 93 % of control; (dose: 400.0 mg/kg/injection, schedule: Q01DX001 (ip), vehicle: Klucel (hydroxypropylcellulose) (HPC)) 92 % of control; under setting [14], 86 % of control.

On to `O=C(OCC(COC(=O)c1ccccc1)(COC(=O)c1ccccc1)COC(=O)c1ccccc1)c1ccccc1`, for which the T/C under setting [6] was 91 % of control; the T/C under setting [12] was 91 % of control; the T/C under setting [7] is 105 % of control; the T/C under setting [13] was 99 % of control; the T/C under setting [8] is 96 % of control; the T/C under setting [14] was 98 % of control.

Consider `O=C1C(=O)N2c3ccccc3CCc3cccc1c32`, for which the T/C was 103 % of control (dose: 100.0 mg/kg/injection, schedule: Q01DX001 (ip), vehicle: saline with Tween-80); 96 % of control under setting [3]; 93 % of control (dose: 200.0 mg/kg/injection, schedule: Q01DX001 (ip), vehicle: saline with Tween-80); 100 % of control under setting [4]; 97 % of control (dose: 400.0 mg/kg/injection, schedule: Q01DX001 (ip), vehicle: saline with Tween-80); 100 % of control under setting [5].

For the compound `CC(C)(C)OC(=O)NC(CC(=O)OCc1ccccc1)C(=O)O` (stereo not given), the T/C under setting [6] is 87 % of control, the T/C under setting [12] is 93 % of control, the T/C under setting [13] is 95 % of control and the T/C under setting [14] was 106 % of control.

For `Cc1ccccc1NC(=O)Nc1ccc(S(N)(=O)=O)cc1`, the T/C reads like this: under setting [6], 104 % of control; (dose: 100.0 mg/kg/injection, schedule: Q04DX002 (ip), vehicle: Klucel (hydroxypropylcellulose) (HPC)) 86 % of control; under setting [7], 101 % of control; (dose: 200.0 mg/kg/injection, schedule: Q04DX002 (ip), vehicle: Klucel (hydroxypropylcellulose) (HPC)) 93 % of control; under setting [8], 112 % of control; (dose: 400.0 mg/kg/injection, schedule: Q04DX002 (ip), vehicle: Klucel (hydroxypropylcellulose) (HPC)) 86 % of control.

With `CC(C)(C)CC(C)(C)N(CSc1ccc2ccccc2c1)CSc1ccc2ccccc2c1`, the T/C is 98 % of control under setting [9], 98 % of control under setting [10] and 91 % of control under setting [11].

Turning to `S=c1nc[nH]c2nc[nH]c12.[Ag]`, the T/C (dose: 3.0 mg/kg/injection, schedule: Q01DX009 (ip), vehicle: carboxymethylcellulose (CMC)) is 106 % of control and 92 % of control; the T/C (dose: 6.0 mg/kg/injection, schedule: Q01DX009 (ip), vehicle: carboxymethylcellulose (CMC)) is 101 % of control; the T/C (dose: 12.0 mg/kg/injection, schedule: Q01DX009 (ip), vehicle: carboxymethylcellulose (CMC)) is 113 % of control; the T/C (dose: 50.0 mg/kg/injection, schedule: Q01DX009 (ip), vehicle: carboxymethylcellulose (CMC)) was 113 % of control and 119 % of control; the T/C (dose: 400.0 mg/kg/injection, schedule: Q01DX009 (ip), vehicle: carboxymethylcellulose (CMC)) was 101 % of control; the T/C (dose: 600.0 mg/kg/injection, schedule: Q01DX009 (ip), vehicle: carboxymethylcellulose (CMC)) was 154 % of control. Besides, the T/C (dose: 800.0 mg/kg/injection, schedule: Q01DX009 (ip), vehicle: carboxymethylcellulose (CMC)) is 157 % of control and 159 % of control; the T/C (dose: 800.0 mg/kg/injection, schedule: Q01DX009 (ip), vehicle: saline) is 154 % of control; the T/C (dose: 1000.0 mg/kg/injection, schedule: Q01DX009 (ip), vehicle: carboxymethylcellulose (CMC)) is 119 % of control; the T/C (dose: 1000.0 mg/kg/injection, schedule: Q01DX009 (ip), vehicle: saline) was 154 % of control.

On to `Cc1cc(NC(=O)Nc2ccc(C3=NCCCN3)cc2)ccc1NC(=O)Nc1ccc(C2=NCCCN2)cc1`, for which the T/C (dose: 3.0 mg/kg/injection, schedule: Q01DX Z (ip), vehicle: water) is 113 % of control; the T/C (dose: 4.5 mg/kg/injection, schedule: Q01DX Z (ip), vehicle: water) was 119 % of control; the T/C (dose: 6.0 mg/kg/injection, schedule: Q01DX Z (ip), vehicle: water) is 109 % of control; the T/C (dose: 7.5 mg/kg/injection, schedule: Q01DX Z (ip), vehicle: water) was 167 % of control; the T/C (dose: 10.0 mg/kg/injection, schedule: Q01DX Z (ip), vehicle: water) was 220 % of control; the T/C (dose: 25.0 mg/kg/injection, schedule: Q01DX Z (oral), vehicle: water) was 109 % of control. Moreover, the T/C was 103 % of control (dose: 50.0 mg/kg/injection, schedule: Q01DX Z (oral), vehicle: water); 163 % of control under setting [2]; 105 % of control (dose: 100.0 mg/kg/injection, schedule: Q01DX Z (oral), vehicle: water); 109 % of control (dose: 200.0 mg/kg/injection, schedule: Q01DX Z (oral), vehicle: water).

As to `BrC#CC1CCCCC1`, the T/C reads like this: (dose: 100.0 mg/kg/injection, schedule: Q04DX003 (ip), vehicle: saline) 100 % of control; (dose: 200.0 mg/kg/injection, schedule: Q04DX003 (ip), vehicle: saline) 100 % of control.

The values are drawn from PubChem BioAssay AID248 (DTP/NCI, 2004).
